# According to ChEMBL document CHEMBL3301361, “Experimental in vitro DMPK and physicochemical data on a set of publicly disclosed compounds”:
# Key:
# [1] = physchem; settings: octan-1-ol/water, pH 7.4, LogD7.4
# [2] = in vitro; settings: human, plasma, PPB
SMILES,logD [1],fraction unbound at 5 h [2]
C[C@H](Nc1nc(Nc2ncc(C#N)s2)cc(N2CCOCC2)n1)c1ccc(F)cn1,3.45,0.0594
COc1cc(Nc2ncc(C)s2)nc(N[C@@H](C)c2ncc(F)cn2)n1,2.99,0.103
O=C1CN(C(=O)c2ccco2)C(c2ccccc2)c2cc(Cl)ccc2N1 (stereo not drawn),3,0.101
O=C1CN(C(=O)c2ccccc2)C(c2ccccc2)c2cc(Cl)ccc2N1 (stereo not drawn),3.31,0.0606
O=C(CCS(=O)(=O)c1ccc(Br)cc1)NCc1ccc(F)cc1,3.1,0.0428
COc1cc(Nc2nc(N[C@@H](C)c3ncc(F)cn3)nc(N3CCOCC3)c2Cl)n[nH]1,2.85,0.0784
COc1ccnc(CCc2nc3cc(Br)cnc3[nH]2)c1,2.92,0.0409
C[C@H]1O[C@@H](n2cnc3c(N)nc(OCC4CC45CC5)nc32)[C@H](O)[C@H]1Cl (stereo partly drawn),3.68,0.0447
Cc1ccc(NC(=O)c2ccnc(N3CCOCC3)c2)cc1NC(=O)c1ccc(OCc2ccccn2)cc1,3.47,0.0149
COc1ncc2ccc(=O)n(CCN3CCC(NCc4cc5c(cn4)OCCO5)CC3)c2n1,0.2,0.276
O=C1[C@@H]2[C@@H]3CC[C@@H](C3)[C@@H]2C(=O)N1[C@H]1CC[C@H](C(=O)Nc2cccc3cccnc23)CC1,3.94,0.016
CCOc1ccccc1-c1ccc(-c2nc3ccncc3c(O)c2C#N)cc1,3,0.0007
N#Cc1cnn2c(NC3CC3)cc(-c3cccs3)nc12,2.88,0.016
CC(=O)Nc1ccc2cnn(-c3cc(NC4CC4)n4ncc(C#N)c4n3)c2c1,3.44,0.0191
CC(=O)Nc1ccc2c(c1)N(c1cc(NC3CC3)n3ncc(C#N)c3n1)CC2,3.3,0.0251
N#Cc1cnn2c(NC3CC3)cc(-n3ccc4ccc(CO)cc43)nc12,3.09,0.0191

SMILES,logD [1],fraction unbound at 5 h [2]
N#Cc1ccc2ccc(=O)n(CCN3CC[C@H](NCc4ccc5c(n4)NC(=O)CO5)[C@H](O)C3)c2c1,0.11,0.208
CO[C@H]1CN(CCn2c(=O)ccc3ccc(C#N)cc32)CC[C@H]1NCc1ccc2c(n1)NC(=O)CO2,0.32,0.535
NC(=O)c1cncc(-c2ccc([C@H]3CC[C@H](CC(=O)O)CC3)cc2)c1,0.22,0.0268
CC[C@H](c1ccc(C(=O)O)c(Oc2cccc(Cl)c2)c1)N1CCC[C@H](n2cc(C)c(=O)[nH]c2=O)C1,0.22,0.0179
CC[C@@H](c1ccc(C(=O)O)c(Oc2cccc(Cl)c2)c1)N1CCC[C@H](n2cc(C)c(=O)[nH]c2=O)C1,0.22,0.0383
Cc1cn([C@H]2CCCN(Cc3ccc(C(=O)O)c(Oc4cccc(Br)c4)c3)C2)c(=O)[nH]c1=O,-0.51,0.0191
Cc1cn([C@H]2CCCN(Cc3ccc(C(=O)O)c(Oc4cccc(C(F)(F)F)c4)c3)C2)c(=O)[nH]c1=O,-0.38,0.0293
Cc1c(Cl)ccc(OC2CCN(C[C@H](O)CNC(=O)c3c[nH]c(=O)cc3C(F)(F)F)CC2)c1Cl,3.14,0.0335
N#Cc1cccc(C(=O)NC[C@@H](O)CN2CCC(Oc3ccc(Cl)c(Cl)c3)CC2)c1,3.48,0.0647
Cc1cn([C@H]2CCCN(S(=O)(=O)c3ccc(C(=O)O)c(Oc4cccc(Cl)c4)c3)C2)c(=O)[nH]c1=O,-1.28,0.04
COCCNC(=O)c1ccc(Nc2ncc3cc(-c4ccncc4OC)ccc3n2)cc1,3.14,0.002
CC(=O)Nc1ccc(Nc2ncc3cc(-c4ccncc4)ccc3n2)cc1,3.04,0.006
C[C@@H](NC(=O)C1CCCCN1C)c1ccc(Nc2ncc3cc(-c4ccncc4)ccc3n2)cc1 (stereo partly drawn),3.34,0.0383
COc1ccc(OC)c(CNc2[nH]nc3ccnc(Oc4ccccc4)c23)c1,4.25,0.0142
COc1cc2ncc(C(N)=O)c(Nc3ccccc3C)c2cc1OC,3.4,0.0081
N#Cc1ccc2c(c1)NC(=O)C2c1ncnc2cc(OCCCN3CCOCC3)ccc12 (stereo not drawn),2.99,0.013

# Now from value to compound:
logD [1],fraction unbound at 5 h [2],SMILES
2.91,0.0676,CC(=O)Nc1ccc(-c2ccnc(Nc3ccc(N4CCOCC4)cc3)n2)cc1
2.9,0.0467,Cc1cnc(Nc2cc(N3CCN(C)CC3)nc(N[C@@H](C)c3ccc(F)cn3)n2)s1
2.9,0.0374,COc1ccc(CC(=O)Nc2nc3ccccc3[nH]2)cc1
-0.65,0.232,COc1nccnc1NS(=O)(=O)c1ccc(N)cc1
3.2,0.0245,CC(=O)c1cn(Cc2ccccc2)c(=O)n(Cc2ccc(F)cc2)c1=O
3.1,0.0139,CNC(=O)c1cc(C(=O)c2ccc(Cl)cc2)c(Br)[nH]1
4.1,0.0111,Cc1cccc(-c2nc3cc(Cl)ccc3[nH]2)n1
3.02,0.107,CCOc1cc2nnc(C(N)=O)c(Nc3cc(C)ccc3F)c2cc1N1CCN(C)CC1
3.9,0.0035,CCN(CC)S(=O)(=O)c1ccc(-c2nnc(SCC(=O)N3CCc4ccccc43)o2)cc1
3.5,0.0031,c1ccc2[nH]c(CCCc3nc4ccccc4[nH]3)nc2c1
-0.28,0.051,Cc1ccc(S(=O)(=O)N2N=Cc3oc(C)cc3B2O)cc1
-0.84,0.666,CSc1ccc(N2C(N)=NC(N)=NC2(C)C)cc1
3.11,0.0532,Cc1cc(Nc2nc(N[C@@H](C)c3ccc(F)cn3)c(C#N)cc2F)n[nH]1
2.85,0.0928,CN[C@@H](C)C(=O)N[C@H](C(=O)N[C@H]1CCCN(CCc2ccc(C(F)(F)F)cc2)C1)C(C)(C)C
2.84,0.0752,Cc1cnc(Nc2ccc(N3CCN(C)CC3)cc2)nc1Nc1cccc(S(=O)(=O)NC(C)(C)C)c1
2.88,0.0477,CNc1c(Br)cnc2[nH]c(-c3ccc(S(C)(=O)=O)cc3)nc12

logD [1],fraction unbound at 5 h [2],SMILES
2.96,0.0988,CNc1c(Br)cnc2[nH]c(-c3cccc(N)c3)nc12
2.91,0.0383,CNc1c(Br)cnc2nc(-c3ccc(OCCN4CCN(C)CC4)cc3)[nH]c12
3.28,0.0262,COc1ccc(-c2nc3c(NCCCNC(C)=O)c(Br)cnc3[nH]2)cc1
2.97,0.0179,COc1ccc(-c2cc(Nc3ccn(C)n3)n3ncc(C#N)c3n2)cc1
-0.34,0.0606,Cc1ccc2c(c1)c(-c1ccnc3c(S(C)(=O)=O)cccc13)c(C)n2CC(=O)O
3.12,0.0032,COc1cc(C(=O)NC[C@@H](O)CN2CCC(Oc3ccc(Cl)c(Cl)c3)CC2)ccc1N
3.45,0.0191,CC(=O)N[C@H](C)c1ccc(Nc2ncc3cc(-c4ccncc4)c(C)cc3n2)cc1
3.9,0.0086,CC(C)C[C@H](CO)Nc1nc(SCc2cccc(C#N)c2)nc2nc(N)sc12
3.22,0.0229,C[C@H](CO)Nc1nc(SCc2cccc(F)c2F)nc2[nH]c(N)nc12
3.12,0.0457,C[C@H](CO)Nc1nc(SCc2ccccc2)nc2nc(N)sc12
0.2,0.0647,COc1ccc(-c2nc(N3CCOCC3)nc(O)c2C#N)cc1
2.99,0.0335,CC[C@@H](CO)Nc1nc(SCc2ccccc2)nc2nc(N)sc12
3.23,0.0179,CN1CCN(c2ccc3ncc(C(N)=O)c(Nc4ccc(Cl)cc4Cl)c3c2)CC1
2.86,0.0594,Cc1cc(Nc2nc(O[C@@H](C)c3ccc(F)cn3)c(C#N)nc2C)[nH]n1
3.3,0.0391,Cc1c[nH]c(-c2cc(NC(=O)c3ccc(C(F)(F)F)nc3C)ccc2Cl)n1
3.2,0.0343,Nc1ncnc2nc(-c3ccc(N4CCOCC4)nc3)cc(-c3cccc(Br)c3)c12
